Laboratory results taken from ChEMBL document CHEMBL1201862, “PubChem BioAssay data set” (2004).
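All cell lines were grown in 96-well plates and treated with compound for 48 hours. Here, GI50 denotes the concentration required for 50% inhibition of growth.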 Activity calls are given as the source filed them. Rule as the data show it: active = GI50 up to about 1.1 µM and inactive = higher.

Columns and labels:
Test in all cases: inhibition of tumour cell growth, NCI panel, 48 h
786-0 = test system: 786-0
A549 = test system: A549
ACHN = test system: ACHN
BT-549 = test system: BT-549
CAKI-1 = test system: CAKI-1
CCRF-CEM = test system: CCRF-CEM
COLO 205 = test system: COLO 205
DU-145 = test system: DU-145
HCC 2998 = test system: HCC 2998
HCT-116 = test system: HCT-116
HCT-15 = test system: HCT-15
HL-60 = test system: HL-60
HOP-62 = test system: HOP-62
HOP-92 = test system: HOP-92
HT-29 = test system: HT-29
Hs-578T = test system: Hs-578T
IGROV-1 = test system: IGROV-1
K562 = test system: K562
KM12 = test system: KM12
LOX IMVI = test system: LOX IMVI
M14 = test system: M14
MCF7 = test system: MCF7
MDA-MB-231 = test system: MDA-MB-231
MDA-MB-435 = test system: MDA-MB-435
MDA-N = test system: MDA-N
MOLT-4 = test system: MOLT-4
Malme-3M = test system: Malme-3M
NCI-H23 = test system: NCI-H23
NCI-H522 = test system: NCI-H522
NCI/ADR-RES = test system: NCI/ADR-RES
OVCAR-4 = test system: OVCAR-4
OVCAR-5 = test system: OVCAR-5
OVCAR-8 = test system: OVCAR-8
PC-3 = test system: PC-3
RPMI-8226 = test system: RPMI-8226
SF-268 = test system: SF-268
SF-295 = test system: SF-295
SF-539 = test system: SF-539
SK-MEL-28 = test system: SK-MEL-28
SK-MEL-5 = test system: SK-MEL-5
SK-OV-3 = test system: SK-OV-3
SN12C = test system: SN12C
SNB-19 = test system: SNB-19
SNB-75 = test system: SNB-75
SR = test system: SR
SW-620 = test system: SW-620
T47D = test system: T47D
TK-10 = test system: TK-10
U-251 = test system: U-251
UACC-257 = test system: UACC-257
UACC-62 = test system: UACC-62
NCI-H226 = test system: NCI-H226
NCI-H460 = test system: NCI-H460
OVCAR-3 = test system: OVCAR-3
RXF 393 = test system: RXF 393
UO-31 = test system: UO-31

For N#CCC1COc2ccccc2O1 (stereo unspecified), the GI50 (786-0) was > 10 µM (inactive), the GI50 (A549) was > 10 µM (inactive) and the GI50 (ACHN) was > 10 µM (inactive). For the same compound, the GI50 (BT-549) was > 10 µM (inactive), the GI50 (CAKI-1) was > 10 µM (inactive) and the GI50 (CCRF-CEM) was > 10 µM (inactive). The GI50 (COLO 205) was > 10 µM (inactive), the GI50 (DU-145) was > 10 µM (inactive) and the GI50 (HCC 2998) was > 10 µM (inactive). The GI50 (HCT-116) was > 10 µM (inactive), the GI50 (HCT-15) was > 10 µM and the GI50 (HL-60) was > 10 µM (inactive). For the same compound, the GI50 (HOP-62) was > 10 µM (inactive), the GI50 (HOP-92) was > 10 µM (inactive) and the GI50 (HT-29) was > 10 µM (inactive). For the same compound, the GI50 (Hs-578T) was > 10 µM (inactive), the GI50 (IGROV-1) was > 10 µM (inactive) and the GI50 (K562) was > 10 µM (inactive). The GI50 (KM12) was > 10 µM (inactive), the GI50 (LOX IMVI) was > 10 µM (inactive) and the GI50 (M14) was > 10 µM (inactive). For the same compound, the GI50 (MCF7) was > 10 µM (inactive), the GI50 (MDA-MB-231) was > 10 µM (inactive) and the GI50 (MDA-MB-435) was > 10 µM (inactive). For the same compound, the GI50 (MDA-N) was > 10 µM (inactive), the GI50 (MOLT-4) was > 10 µM (inactive) and the GI50 (Malme-3M) was > 10 µM (inactive). For the same compound, the GI50 (NCI-H23) was > 10 µM (inactive), the GI50 (NCI-H522) was > 10 µM (inactive) and the GI50 (NCI/ADR-RES) was > 10 µM (inactive). The GI50 (OVCAR-4) was > 10 µM (inactive), the GI50 (OVCAR-5) was > 10 µM (inactive) and the GI50 (OVCAR-8) was > 10 µM (inactive). The GI50 (PC-3) was > 10 µM (inactive), the GI50 (RPMI-8226) was > 10 µM (inactive) and the GI50 (SF-268) was > 10 µM (inactive). For the same compound, the GI50 (SF-295) was > 10 µM (inactive), the GI50 (SF-539) was > 10 µM (inactive) and the GI50 (SK-MEL-28) was > 10 µM (inactive). The GI50 (SK-MEL-5) was > 10 µM (inactive), the GI50 (SK-OV-3) was > 10 µM (inactive) and the GI50 (SN12C) was > 10 µM (inactive). The GI50 (SNB-19) was > 10 µM (inactive), the GI50 (SNB-75) was > 10 µM (inactive) and the GI50 (SR) was > 10 µM (inactive). For the same compound, the GI50 (SW-620) was > 10 µM (inactive), the GI50 (T47D) was > 10 µM (inactive) and the GI50 (TK-10) was > 10 µM (inactive). For the same compound, the GI50 (U-251) was > 10 µM (inactive), the GI50 (UACC-257) was > 10 µM (inactive) and the GI50 (UACC-62) was > 10 µM (inactive).
CC1(C)C2CC(O)C1(C)CC2=O (stereo unspecified) was tested, and the GI50 (786-0) was > 100 µM (inactive), the GI50 (A549) was > 100 µM (inactive) and the GI50 (ACHN) was > 100 µM (inactive). For the same compound, the GI50 (BT-549) was > 100 µM (inactive), the GI50 (CCRF-CEM) was > 100 µM (inactive) and the GI50 (COLO 205) was > 100 µM (inactive). The GI50 (DU-145) was > 100 µM (inactive), the GI50 (HCC 2998) was > 100 µM (inactive) and the GI50 (HCT-116) was > 100 µM (inactive). The GI50 (HCT-15) was > 100 µM, the GI50 (HL-60) was > 100 µM (inactive) and the GI50 (HOP-62) was > 100 µM (inactive). For the same compound, the GI50 (HOP-92) was > 100 µM (inactive), the GI50 (HT-29) was > 100 µM (inactive) and the GI50 (Hs-578T) was > 100 µM (inactive). For the same compound, the GI50 (IGROV-1) was > 100 µM (inactive), the GI50 (K562) was > 100 µM (inactive) and the GI50 (KM12) was > 100 µM (inactive). For the same compound, the GI50 (LOX IMVI) was > 100 µM (inactive), the GI50 (M14) was > 100 µM (inactive) and the GI50 (MCF7) was > 100 µM (inactive). For the same compound, the GI50 (MDA-MB-231) was > 100 µM (inactive), the GI50 (MDA-MB-435) was > 100 µM (inactive) and the GI50 (MDA-N) was > 100 µM (inactive). For the same compound, the GI50 (MOLT-4) was > 100 µM (inactive), the GI50 (Malme-3M) was > 100 µM (inactive) and the GI50 (NCI-H226) was > 100 µM (inactive). The GI50 (NCI-H23) was > 100 µM (inactive), the GI50 (NCI-H460) was > 100 µM (inactive) and the GI50 (NCI-H522) was > 100 µM (inactive). The GI50 (NCI/ADR-RES) was > 100 µM (inactive), the GI50 (OVCAR-3) was > 100 µM (inactive) and the GI50 (OVCAR-4) was > 100 µM (inactive). The GI50 (OVCAR-5) was > 100 µM (inactive), the GI50 (OVCAR-8) was > 100 µM (inactive) and the GI50 (PC-3) was > 100 µM (inactive). The GI50 (RPMI-8226) was > 100 µM (inactive), the GI50 (RXF 393) was > 100 µM (inactive) and the GI50 (SF-268) was > 100 µM (inactive). For the same compound, the GI50 (SF-295) was > 100 µM (inactive), the GI50 (SF-539) was > 100 µM (inactive) and the GI50 (SK-MEL-28) was 3.21 µM (inactive). For the same compound, the GI50 (SK-MEL-5) was > 100 µM (inactive), the GI50 (SK-OV-3) was > 100 µM (inactive) and the GI50 (SN12C) was > 100 µM (inactive). For the same compound, the GI50 (SNB-19) was > 100 µM (inactive), the GI50 (SNB-75) was > 100 µM (inactive) and the GI50 (SR) was > 100 µM (inactive). For the same compound, the GI50 (SW-620) was > 100 µM (inactive), the GI50 (T47D) was > 100 µM (inactive) and the GI50 (TK-10) was > 100 µM (inactive). For the same compound, the GI50 (U-251) was > 100 µM (inactive), the GI50 (UACC-257) was > 100 µM (inactive) and the GI50 (UACC-62) was > 100 µM (inactive). For the same compound, the GI50 (UO-31) was > 100 µM (inactive).
